Test results taken from patent US20250129031A1, “1,2,3-TRIAZOLE CARBONYL SULFONYLAMIDE COMPOUNDS AND USE THEREOF” (PI INDUSTRIES LTD., priority 2022, published 2025).

Test system: Meloidogyne incognita
Test: Meloidogyne incognita test: gall rating on cucumber plants in pots after soil application
Assay type: in vivo
Set-up: key: 0: no galls; 1: very few small galls; 2: numerous small galls; 3: numerous small galls of which some are grown together; 4: numerous small and some big galls; 25% of roots severely galled; 6: 50% of roots severely galled; 75% of roots severely galled; 8: no healthy roots but plant is still green; 9: roots rotting and plant dying; 10: plant and roots dead
Settings: 1000 ppm applied to soil inoculated with 5000 eggs & J2s; cucumber seedlings; rated 30 days after application; 0-10 scale (Zeck 1971); untreated check up to 8
Description: Meloidogyne incognita Test:
The trial pots were filled with soil containing a mixture of sand:soil:cocopeat in a ratio of 1:1:1. To the soil of each pot 5 mL of a nematode suspension (Meloidogyne incognita, mix of 5000 eggs & J2s) was added. One hour later the respective test compound at the stated concentration was applied to each pot. 10 days old cucumber seedlings were transplanted into the pots one day after the application. The cucumber plants were allowed to grow at a temperature of 27° C. under greenhouse conditions. The evaluation of the gall rating was recorded 30 days after the application. The plants were carefully uprooted and the roots were thoroughly washed. The gall rating was done on a 0-10 scale as described by Zeck (1971) and shown below: • 0=no galls • 1=very few small galls • 2=numerous small galls • 3=numerous small galls of which some are grown together • 4=numerous small and some big galls • 5=25% of roots severely galled • 6=50% of roots severely galled • 7=75% of roots severely galled • 8=no healthy roots but plant is still green • 9=roots rotting and plant dying • 10=plant and roots dead

Compound | gall rating scale
Cc1ccccc1S(=O)(=O)NC(=O)c1nnn(-c2ccc(C#N)cc2Cl)c1C(F)(F)F [Compound 396, 1-(2-chloro-4-cyanophenyl)-N-(o-tolylsulfonyl)-5-(trifluoromethyl)-1H-1,2,3-triazole-4-carboxamide] | 4
O=C(NS(=O)(=O)c1cc(C(F)(F)F)ccc1Cl)c1nnn(-c2ccc(C(F)(F)F)cc2Cl)c1C(F)(F)F [Compound 76] | 4
Cc1ccc(C)c(S(=O)(=O)NC(=O)c2nnn(-c3ccc(C#N)cc3Cl)c2C(F)(F)F)c1 [Compound 389, 1-(2-chloro-4-cyanophenyl)-N-((2,5-dimethylphenyl)sulfonyl)-5-(trifluoromethyl)-1H-1,2,3-triazole-4-carboxamide] | 4
Cc1c(C(=O)NS(=O)(=O)c2cc(C(F)(F)F)ccc2Cl)nnn1-c1ccc(Cl)cc1Cl [Compound 33] | 4
Cc1c(C(=O)NS(=O)(=O)c2ccccc2F)nnn1-c1cc(Cl)cc(C(F)(F)F)c1 [Compound 96] | 4
Cc1c(C(=O)NS(=O)(=O)c2ccccc2F)nnn1-c1ccc(OC(F)F)cc1Cl [Compound 668] | 4
Cc1c(C(=O)NS(=O)(=O)c2cc(Cl)ccc2Cl)nnn1-c1cc(Cl)cc(Cl)c1 [Compound 8, 1-(3,5-dichlorophenyl)-N-((2,5-dichlorophenyl)sulfonyl)-5-methyl-1H-1,2,3-triazole-4-carboxamide] | 4
Cc1c(C(=O)NS(=O)(=O)c2cc(Cl)ccc2Cl)nnn1-c1ccc(OC(F)F)cc1Cl [Compound 666] | 4
COc1ccc(C)cc1S(=O)(=O)NC(=O)c1nnn(-c2ccc(OC(F)(F)F)cc2Cl)c1C [Compound 587] | 4
Cc1ccc(F)cc1S(=O)(=O)NC(=O)c1nnn(-c2ccc(C#N)cc2Cl)c1C [Compound 516, 1-(2-chloro-4-cyanophenyl)-N-((5-fluoro-2-methylphenyl)sulfonyl)-5-methyl-1H-1,2,3-triazole-4-carboxamide] | 4
Cc1c(C(=O)NS(=O)(=O)c2ccccc2C(F)(F)F)nnn1-c1ccc(C#N)cc1Cl [Compound 271] | 4
Cc1c(C(=O)NS(=O)(=O)c2cc(C(F)(F)F)ccc2C(F)(F)F)nnn1-c1c(Cl)cc(Cl)cc1Cl [Compound 430] | 4
Cc1c(C(=O)NS(=O)(=O)c2ccccc2C(F)(F)F)nnn1-c1ccc(Cl)cc1Cl [Compound 241] | 4
Cc1ccc(C)c(S(=O)(=O)NC(=O)c2nnn(-c3ccc(Cl)cc3F)c2C)c1 [Compound 433] | 4
COc1ccc(Cl)c(S(=O)(=O)NC(=O)c2nnn(-c3ccc(Cl)cc3C(F)(F)F)c2C)c1 [Compound 61] | 4
Cc1c(C(=O)NS(=O)(=O)c2cc(Cl)ccc2F)nnn1-c1ccc(C#N)cc1Cl [Compound 497] | 4

Compound | gall rating scale
O=C(NS(=O)(=O)c1cc(Cl)ccc1Cl)c1nnn(-c2ccc(OC(F)(F)F)cc2Cl)c1C1CC1 [Compound 229, 1-(2-chloro-4-(trifluoromethoxy)phenyl)-5-cyclopropyl-N-((2,5-dichlorophenyl)sulfonyl)-1H-1,2,3-triazole-4-carboxamide] | 4
Cc1ccc(C)c(S(=O)(=O)NC(=O)c2nnn(-c3ccc(OC(F)F)cc3Cl)c2C)c1 [Compound 667] | 4
O=C(NS(=O)(=O)c1ccccc1C(F)(F)F)c1nnn(-c2ccc(F)cc2F)c1C(F)(F)F [Compound 736] | 4
O=C(NS(=O)(=O)c1cc(Cl)ccc1Cl)c1cn(-c2cc(Cl)cc(Cl)c2)nn1 [Compound 2, 1-(3,5-dichlorophenyl)-N-((2,5-dichlorophenyl)sulfonyl)-1H-1,2,3-triazole-4-carboxamide] | 4
CCc1c(C(=O)NS(=O)(=O)c2ccccc2Cl)nnn1-c1ccc(OC(F)(F)F)cc1Cl [Compound 338, 1-(2-chloro-4-(trifluoromethoxy)phenyl)-N-((2-chlorophenyl)sulfonyl)-5-ethyl-1H-1,2,3-triazole-4-carboxamide] | 4
Cc1c(C(=O)NS(=O)(=O)c2cc(F)ccc2F)nnn1-c1ccc(OC(F)F)cc1Cl [Compound 674] | 4
Cc1c(C(=O)NS(=O)(=O)c2ccccc2C(F)(F)F)nnn1-c1ccc(OC(F)(F)F)cc1Cl [Compound 132] | 4
Cc1ccc(C)c(S(=O)(=O)NC(=O)c2nnn(-c3ccc(C#N)cc3Cl)c2C)c1 [Compound 328] | 4
Cc1c(C(=O)NS(=O)(=O)c2cc(C(F)(F)F)ccc2Br)nnn1-c1ccc(Cl)cc1Cl [Compound 261] | 4
Cc1c(C(=O)NS(=O)(=O)c2ccccc2F)nnn1-c1ccc(Cl)cc1F [Compound 445] | 4
Cc1cc(S(=O)(=O)NC(=O)c2nnn(-c3ccc(Cl)cc3Cl)c2C)c(C)cc1Cl [Compound 280, N-((4-chloro-2,5-dimethylphenyl)sulfonyl)-1-(2,4-dichlorophenyl)-5-methyl-1H-1,2,3-triazole-4-carboxamide] | 4
Cc1c(C(=O)NS(=O)(=O)c2cc(F)cc(F)c2)nnn1-c1ccc(OC(F)(F)F)cc1Cl [Compound 140] | 4
Cc1c(C(=O)NS(=O)(=O)c2ccccc2OC(F)(F)F)nnn1-c1cc(Cl)cc(Cl)c1 [Compound 17] | 4
COc1ccc(Cl)c(S(=O)(=O)NC(=O)c2nnn(-c3ccc(Cl)cc3Cl)c2C)c1 [Compound 56] | 4
Cc1c(C(=O)NS(=O)(=O)c2ccc(F)cc2F)nnn1-c1ccc(OC(F)F)cc1Cl [Compound 672] | 4
Cc1c(C(=O)NS(=O)(=O)c2ccc(F)cc2)nnn1-c1cc(Cl)cc(Cl)c1 [Compound 25] | 4
